Assay type in all cases: biochemical
The subject of assay [1] is HDAC. The experiment in a line: HDAC fluorimetric assay kit (HeLa nuclear extract). The following applies: read-out: HDAC IC50 grade. The protocol: HDAC inhibitors were screened using an HDAC fluorimetric assay kit (AK-500, Biomol, Plymouth Meeting, Pa.). […] Each assay was setup as follows: Defrosted all kit components and kept on ice until use. Diluted HeLa nuclear extract 1:29 in assay buffer (50 mM Tris/Cl, pH 8.0, 137 mM NaCl, 2.7 mM KCl, 1 mM MgCl2). Prepared dilutions of Trichostatin A (TSA, positive control) and tested compounds in assay buffer (5× of final concentration). Diluted Fluor de LysTM Substrate in assay buffer to 100 uM (50 fold=2× final). Diluted Fluor de LysTM developer concentrate 20-fold (e.g. 50 μl plus 950 μl assay buffer) in cold assay buffer. Second, diluted the 0.2 mM Trichostatin A 100-fold in the 1× Developer (e.g. 10 μl in 1 ml; final Trichostatin A concentration in the 1× Developer=2 μM; final concentration after addition to HDAC/Substrate reaction=1 μM). Added assay buffer, diluted trichostatin A or test inhibitor to appropriate wells of the microtiter plate. Added diluted HeLa extract or other HDAC sample to all wells except for negative controls. Allowed diluted Fluor de LysTM Substrate and the samples in the microtiter plate to equilibrate to assay temperature (e.g. 25 or 37° C. Initiated HDAC reactions by adding diluted substrate (25 μl) to each well and mixing thoroughly. Allowed HDAC reactions to proceed for 1 hour and then stopped them by addition of Fluor de LysTM Developer (50 μl). Incubated plate at room temperature (25° C.) for 10-15 min. Read samples in a microtiter-plate reading fluorimeter capable of excitation at a wavelength in the range 350-380 nm and detection of emitted light in the range 440-460 nm.
(§1) The following TABLE B lists compounds representative of the invention and their activity in HDAC, VEGFR2 and RAF assays.

The target in assay [2] is T1, VEGFR2 (Homo sapiens, UniProt P35968).
T1 construct: GST (N); His6 (N); Thrombin cleavage site (N); purchased Cell Signaling Technologies; host or cells: baculovirus expression system
The experiment in a line: HTScan VEGFR2 Kinase Assay (DELFIA). The following applies: 200 μM ATP; read-out: VEGFR2 IC50 grade. The protocol: The ability of compounds to inhibit VEGFR2 kinase activity was assayed using HTScan™ VEGFR2 Kinase Assay Kits (Cell Signaling Technologies, Danvers, Mass.). […] The protein was purified by one-step affinity chromatography using glutathione-agarose.
Immediately transfer enzyme from −80° C. to ice. Allowed enzyme to thaw on ice. […] Returned immediately to ice. […] Incubated reaction plate at room temperature for 30 minutes. […] Added 100 μl/well primary antibody. Incubated at room temperature for 60 minutes. […] Added 100 μl/well diluted antibody. Incubated at room temperature for 30 minutes. […] Incubated at room temperature for 5 minutes.
as §1

Assay [3] deals with PDGFRβ (Homo sapiens, UniProt P09619). The experiment in a line: PDGFRβ kinase inhibition (Table B). To be noted: read-out: PDGFRβ IC50 grade.
Assay [4] has as its target cKit (Homo sapiens, UniProt P10721). Description: cKit kinase inhibition (Table B). To be noted: read-out: cKit IC50 grade.
Assay [5] concerns the target C-Raf (Homo sapiens, UniProt P04049). Description: Raf kinase assay (C-Raf kit, MEK-1 substrate, dot blot). The following applies: 250 μM ATP; read-out: C-Raf IC50 grade. How it is done:
The Raf kinase assay was performed by following the protocol of Raf kinase assay kit (B-Raf, Upstate, catalog# 17-359; C-Raf, Upstate, catalog# 17-360) with modifications. Briefly, assay buffer, ATP, substrate and Raf kinase were mixed in a 96 well assay plate. The final kinase assay mixture contained 20 mM MOPS, pH7.2, 25 mM β-glycerol phosphate, 5 mM EGTA, 1 mM sodium orthovanadate, 1 mM DTT, 250 μM ATP and 37.5 mM magnesium chloride, 0.1 μg/well of Raf kinase, and 1 μg/well of MEK-1 substrate protein. Assay samples were incubated for 30 min at room temperature. The kinase reaction was stopped by adding EDTA, pH8 to a final concentration of 25 mM. A 10 μl of the reaction sample was spotted onto nitrocellulose filter and dot blot was performed by adding 1 μg/ml of anti-phospho-MEK-1 antibody in the blocking solution (Licor Bioscience, catalogue # 927-40000). The nitrocellulose filter was subsequently incubated with secondary IRDye 800CW goat anti-rabbit antibody (Licor Bioscience, catalogue # 926-32211) before reading the signal on an Odyssey imager (Licor Bioscience).
as §1

The structures appear in SMILES notation. A value given as a limit tells only on which side of the number the result lay.

T1 sequence (P35968 805-1356): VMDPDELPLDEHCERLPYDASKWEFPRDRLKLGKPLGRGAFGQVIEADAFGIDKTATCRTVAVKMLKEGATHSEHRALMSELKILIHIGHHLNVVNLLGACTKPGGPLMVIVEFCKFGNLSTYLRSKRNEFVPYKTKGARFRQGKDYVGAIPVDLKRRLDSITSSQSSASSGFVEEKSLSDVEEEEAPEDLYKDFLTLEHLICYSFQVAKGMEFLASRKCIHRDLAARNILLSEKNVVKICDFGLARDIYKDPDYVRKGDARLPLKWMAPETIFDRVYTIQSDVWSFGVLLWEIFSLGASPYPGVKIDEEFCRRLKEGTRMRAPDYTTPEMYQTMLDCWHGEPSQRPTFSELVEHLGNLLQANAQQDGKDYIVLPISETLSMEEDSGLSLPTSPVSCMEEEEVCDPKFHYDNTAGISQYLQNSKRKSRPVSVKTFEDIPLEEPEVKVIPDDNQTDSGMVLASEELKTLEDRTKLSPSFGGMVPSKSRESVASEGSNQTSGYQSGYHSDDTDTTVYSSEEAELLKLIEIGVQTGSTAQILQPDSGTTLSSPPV
Sequence of PDGFRβ (P09619 33-1106, species assumed): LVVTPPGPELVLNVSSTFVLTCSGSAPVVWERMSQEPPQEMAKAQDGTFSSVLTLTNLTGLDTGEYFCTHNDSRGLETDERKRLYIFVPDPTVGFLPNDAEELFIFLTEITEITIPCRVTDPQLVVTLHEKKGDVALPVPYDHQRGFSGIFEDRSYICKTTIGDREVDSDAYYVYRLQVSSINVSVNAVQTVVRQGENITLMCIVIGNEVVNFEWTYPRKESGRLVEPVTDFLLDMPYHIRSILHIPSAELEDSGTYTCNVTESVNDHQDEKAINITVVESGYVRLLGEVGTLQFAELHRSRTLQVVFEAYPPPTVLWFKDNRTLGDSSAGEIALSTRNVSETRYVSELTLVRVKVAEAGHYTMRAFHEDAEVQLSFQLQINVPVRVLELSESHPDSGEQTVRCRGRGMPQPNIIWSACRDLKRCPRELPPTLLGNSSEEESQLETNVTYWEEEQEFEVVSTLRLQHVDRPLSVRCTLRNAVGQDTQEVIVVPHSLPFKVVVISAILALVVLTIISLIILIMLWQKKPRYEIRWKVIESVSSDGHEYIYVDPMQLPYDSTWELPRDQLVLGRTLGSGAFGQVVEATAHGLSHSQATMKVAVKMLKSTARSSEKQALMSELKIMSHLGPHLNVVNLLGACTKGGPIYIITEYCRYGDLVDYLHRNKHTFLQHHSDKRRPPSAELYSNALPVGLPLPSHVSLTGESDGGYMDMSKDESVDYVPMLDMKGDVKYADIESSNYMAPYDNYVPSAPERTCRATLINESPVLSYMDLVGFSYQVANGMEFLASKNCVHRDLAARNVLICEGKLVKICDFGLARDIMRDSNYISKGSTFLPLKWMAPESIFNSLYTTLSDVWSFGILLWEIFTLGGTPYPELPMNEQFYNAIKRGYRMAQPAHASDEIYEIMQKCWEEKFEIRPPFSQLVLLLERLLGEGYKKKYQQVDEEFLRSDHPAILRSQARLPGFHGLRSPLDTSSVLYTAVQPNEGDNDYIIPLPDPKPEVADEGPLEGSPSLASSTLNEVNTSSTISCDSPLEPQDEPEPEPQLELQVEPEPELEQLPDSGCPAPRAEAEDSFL
Sequence of cKit (P10721 26-976): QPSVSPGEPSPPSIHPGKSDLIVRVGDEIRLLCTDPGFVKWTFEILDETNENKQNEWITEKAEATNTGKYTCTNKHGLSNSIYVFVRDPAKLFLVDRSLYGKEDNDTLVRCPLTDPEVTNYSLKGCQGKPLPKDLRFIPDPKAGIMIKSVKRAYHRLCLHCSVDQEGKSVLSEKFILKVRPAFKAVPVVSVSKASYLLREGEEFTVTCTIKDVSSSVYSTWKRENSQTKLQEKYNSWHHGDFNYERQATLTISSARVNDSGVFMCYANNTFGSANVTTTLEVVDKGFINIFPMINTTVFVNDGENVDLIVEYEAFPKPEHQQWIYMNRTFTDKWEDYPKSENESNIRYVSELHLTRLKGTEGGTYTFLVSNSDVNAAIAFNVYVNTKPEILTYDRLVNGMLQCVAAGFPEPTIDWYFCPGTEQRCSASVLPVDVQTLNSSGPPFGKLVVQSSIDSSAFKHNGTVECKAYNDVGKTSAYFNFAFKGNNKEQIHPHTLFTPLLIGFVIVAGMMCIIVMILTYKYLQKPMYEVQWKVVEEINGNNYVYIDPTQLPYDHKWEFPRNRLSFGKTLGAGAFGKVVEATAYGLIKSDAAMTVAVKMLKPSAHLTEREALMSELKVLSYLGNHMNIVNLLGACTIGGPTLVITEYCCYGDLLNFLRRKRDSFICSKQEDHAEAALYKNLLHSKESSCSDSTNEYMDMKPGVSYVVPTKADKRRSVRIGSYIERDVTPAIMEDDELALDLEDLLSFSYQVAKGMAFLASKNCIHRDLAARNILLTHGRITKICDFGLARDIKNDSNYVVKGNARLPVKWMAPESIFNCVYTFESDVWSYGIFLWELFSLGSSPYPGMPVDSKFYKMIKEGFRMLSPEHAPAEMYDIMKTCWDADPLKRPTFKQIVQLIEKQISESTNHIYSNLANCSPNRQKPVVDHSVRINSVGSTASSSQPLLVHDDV
Sequence of C-Raf (P04049 whole entry Y340D/Y341D, form open): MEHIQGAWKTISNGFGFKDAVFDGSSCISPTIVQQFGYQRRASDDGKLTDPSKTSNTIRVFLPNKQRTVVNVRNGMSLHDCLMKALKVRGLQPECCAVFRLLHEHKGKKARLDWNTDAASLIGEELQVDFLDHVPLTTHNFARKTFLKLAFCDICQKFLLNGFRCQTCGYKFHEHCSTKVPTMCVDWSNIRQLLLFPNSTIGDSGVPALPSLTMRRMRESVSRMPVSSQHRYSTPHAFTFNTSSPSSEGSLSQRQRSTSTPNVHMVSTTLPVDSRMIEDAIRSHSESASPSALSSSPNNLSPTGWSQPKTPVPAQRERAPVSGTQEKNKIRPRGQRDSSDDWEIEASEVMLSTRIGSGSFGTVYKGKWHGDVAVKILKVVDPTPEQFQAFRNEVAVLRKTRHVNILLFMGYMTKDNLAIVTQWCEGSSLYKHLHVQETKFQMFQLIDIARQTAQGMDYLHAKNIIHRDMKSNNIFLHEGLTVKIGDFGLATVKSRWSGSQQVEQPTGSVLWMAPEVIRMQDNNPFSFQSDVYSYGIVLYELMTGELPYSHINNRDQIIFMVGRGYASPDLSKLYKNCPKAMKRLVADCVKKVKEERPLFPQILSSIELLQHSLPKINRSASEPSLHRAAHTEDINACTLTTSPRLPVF

One may read the IC50 as the midpoint of a concentration-inhibition curve. Regarding `O=C(CCCCCCOc1cc(Oc2ccc(NC(=O)Nc3ccc(Cl)c(C(F)(F)F)c3)cc2)ccn1)NO` [Compound 34], the half-inhibitory concentration (IC50) in assay [1] lay within 100 to 1000 nM.

In the case of `O=C(CCCCCn1ccc(Oc2ccc(NC(=O)Nc3ccc(Cl)c(C(F)(F)F)c3)cc2)cc1=O)NO` [Compound 27], in assay [1], the IC50 was 100 to 1000 nM.

Take `O=C(CCCOc1cc(Oc2ccc(NC(=O)Nc3ccc(Cl)c(C(F)(F)F)c3)cc2)ccn1)NO` [Compound 31]: the IC50 in assay [1] was 1000 to 10000 nM.

As for `O=C(CCC(=O)NCc1cc(Oc2ccc(NC(=O)Nc3ccc(Cl)c(C(F)(F)F)c3)cc2)ccn1)NO` [Compound 19, N^1-((4-(4-(3-(4-chloro-3-(trifluoromethyl)phenyl)ureido)phenoxy)pyridin-2-yl)methyl)-N^4-hydroxysuccinamide], in assay [1], the IC50 is 100 to 1000 nM.

Regarding `O=C(CCCNC(=O)c1cc(Oc2ccc(NC(=O)Nc3ccc(Cl)c(C(F)(F)F)c3)cc2)ccn1)NO` [Compound 3, 4-(4-(3-(4-chloro-3-(trifluoromethyl)phenyl)ureido)phenoxy)-N-(4-(hydroxyamino)-4-oxobutyl)picolinamide], the IC50 in assay [1] was in the range of 1000 to 10000 nM.

On to `C[C@@H](NC(=O)c1cc(Oc2ccc(NC(=O)Nc3ccc(Cl)c(C(F)(F)F)c3)cc2)ccn1)C(=O)NO` [Compound 1, (R)-4-(4-(3-(4-chloro-3-(trifluoromethyl)phenyl)ureido)phenoxy)-N-(1-(hydroxyamino)-1-oxopropan-2-yl)picolinamide], for which the 50% inhibitory concentration (IC50) in assay [1] fell in the range of 1000 to 10000 nM.

As to `O=C(CCCCC(=O)Nc1cc(Oc2ccc(NC(=O)Nc3ccc(Cl)c(C(F)(F)F)c3)cc2)ccn1)NO` [Compound 10, 1-(4-chloro-3-(trifluoromethyl)phenyl)-3-(4-(2-(6-(hydroxyamino)-6-oxohexanamido)pyridin-4-yloxy)phenyl)urea], the half-maximal inhibitory concentration (IC50) in assay [1] fell in the range of 1000 to 10000 nM.

Take `O=C(CCCCCOc1cc(Oc2ccc(NC(=O)Nc3ccc(Cl)c(C(F)(F)F)c3)cc2)ccn1)NO` [Compound 33]: the IC50 in assay [1] lay in the range of 1000 to 10000 nM.

With `O=C(CCCCn1ccc(Oc2ccc(NC(=O)Nc3ccc(Cl)c(C(F)(F)F)c3)cc2)cc1=O)NO` [Compound 26], the half-inhibitory concentration (IC50) in assay [1] was in the range of 1000 to 10000 nM.

Turning to `O=C(CCCCOc1cc(Oc2ccc(NC(=O)Nc3ccc(Cl)c(C(F)(F)F)c3)cc2)ccn1)NO` [Compound 32], the results for the IC50 in assay [1] and in assay [2] were 100 to 1000 nM and less than 100 nM, respectively.

For `O=C(CCCCCCCNC(=O)c1cc(Oc2ccc(NC(=O)Nc3ccc(Cl)c(C(F)(F)F)c3)cc2)ccn1)NO` [Compound 7, 4-(4-(3-(4-chloro-3-(trifluoromethyl)phenyl)ureido)phenoxy)-N-(8-(hydroxyamino)-8-oxooctyl)picolinamide], the half-maximal inhibitory concentration (IC50) in assay [1] is 1000 to 10000 nM; in assay [2], 100 to 1000 nM; in assay [3] it was 100 to 1000 nM; in assay [4], less than 100 nM.

For `O=C(CCCCC(=O)NCc1cc(Oc2ccc(NC(=O)Nc3ccc(Cl)c(C(F)(F)F)c3)cc2)ccn1)NO` [Compound 21, N^1-((4-(4-(3-(4-chloro-3(trifluoromethyl)phenyl)ureido)phenoxy)pyridin-2-yl)methyl)-N^6-hydroxyadipamide], the IC50 was 100 to 1000 nM in assay [1], less than 100 nM in assay [2], 100 to 1000 nM in assay [3] and less than 100 nM in assay [4].

For the compound `O=C(CCCCCCNCc1cc(Oc2ccc(NC(=O)Nc3ccc(Cl)c(C(F)(F)F)c3)cc2)ccn1)NO` [Compound 17, 7-((4-(4-(3-(4-chloro-3-(trifluoromethyl)phenyl)ureido)phenoxy)pyridin-2-yl)methylamino)-N-hydroxyheptanamide], the IC50 in assay [1] and in assay [2] was 100 to 1000 nM in each case.

With `O=C(CCCC(=O)NCc1cc(Oc2ccc(NC(=O)Nc3ccc(Cl)c(C(F)(F)F)c3)cc2)ccn1)NO` [Compound 20, N^1-((4-(4-(3-(4-chloro-3(trifluoromethyl)phenyl)ureido)phenoxy)pyridin-2-yl)methyl)-N^5-hydroxyglutaramide], the IC50 in assay [1] is 100 to 1000 nM; in assay [2], less than 100 nM.

In the case of `O=C(CCCC(=O)Nc1cc(Oc2ccc(NC(=O)Nc3ccc(Cl)c(C(F)(F)F)c3)cc2)ccn1)NO` [Compound 9, 1-(4-chloro-3-(trifluoromethyl)phenyl)-3-(4-(2-(5-(hydroxyamino)-5-oxopentanamido)pyridin-4-yloxy)phenyl)urea], the concentration for half-maximal inhibition (IC50) in assay [1] is 100 to 1000 nM; in assay [2] it was less than 100 nM.

As for `O=C(CCCn1ccc(Oc2ccc(NC(=O)Nc3ccc(Cl)c(C(F)(F)F)c3)cc2)cc1=O)NO` [Compound 25], the half-inhibitory concentration (IC50) in assay [1] fell in the range of 1000 to 10000 nM.

Turning to `O=C(CCCCCCC(=O)NCc1cc(Oc2ccc(NC(=O)Nc3ccc(Cl)c(C(F)(F)F)c3)cc2)ccn1)NO` [Compound 23, N^1-((4-(4-(3-(4-chloro-3(trifluoromethyl)phenyl)ureido)phenoxy)pyridin-2-yl)methyl)-N^8-hydroxyoctanediamide], the IC50 in assay [1] was 100 to 1000 nM; in assay [2], less than 100 nM; in assay [3], 100 to 1000 nM; in assay [4] it was less than 100 nM.

With `O=C(CCCCCCn1ccc(Oc2ccc(NC(=O)Nc3ccc(Cl)c(C(F)(F)F)c3)cc2)cc1=O)NO` [Compound 28], in assay [1], the concentration for half-maximal inhibition (IC50) lay in the range of 100 to 1000 nM.

Take `O=C(CCCCCCCNCc1cc(Oc2ccc(NC(=O)Nc3ccc(Cl)c(C(F)(F)F)c3)cc2)ccn1)NO` [Compound 18, 8-((4-(4-(3-(4-Chloro-3-(trifluoromethyl)phenyl)ureido)phenoxy)pyridin-2-yl)methylamino)-N-hydroxyoctanamide]: the 50% inhibitory concentration (IC50) in assay [1] and in assay [2] was 100 to 1000 nM each time.

Consider `O=C(CCCCCCC(=O)Nc1cc(Oc2ccc(NC(=O)Nc3ccc(Cl)c(C(F)(F)F)c3)cc2)ccn1)NO` [Compound 12, 1-(4-chloro-3-(trifluoromethyl)phenyl)-3-(4-(2-(8-(hydroxyamino)-8-oxooctanamido)pyridin-4-yloxy)phenyl)urea], for which the 50% inhibitory concentration (IC50) in assay [1] was 100 to 1000 nM; in assay [5], less than 100 nM; in assay [2], less than 100 nM; in assay [3], less than 100 nM; in assay [4], less than 100 nM.

As for `O=C(CCCCCNCc1cc(Oc2ccc(NC(=O)Nc3ccc(Cl)c(C(F)(F)F)c3)cc2)ccn1)NO` [Compound 16, 6-((4-(4-(3-(4-chloro-3-(trifluoromethyl)phenyl)ureido)phenoxy)pyridin-2-yl)methylamino)-N-hydroxyhexanamide], the half-inhibitory concentration (IC50) in assay [1] fell in the range of 100 to 1000 nM.

Turning to `O=C(Nc1ccc(Oc2ccnc(C(=O)NO)c2)cc1)Nc1ccc(Cl)c(C(F)(F)F)c1` [Compound 36, 4-(4-(3-(4-chloro-3-(trifluoromethyl)phenyl)ureido)phenoxy)-N-hydroxypicolinamide], the results for the 50% inhibitory concentration (IC50) in assay [1] and in assay [2] were greater than 10000 nM and 1000 to 10000 nM, respectively.

Take `O=C(CCCCCCNC(=O)c1cc(Oc2ccc(NC(=O)Nc3ccc(Cl)c(C(F)(F)F)c3)cc2)ccn1)NO` [Compound 6, 4-(4-(3-(4-chloro-3-(trifluoromethyl)phenyl)ureido)phenoxy)-N-(7-(hydroxyamino)-7-oxoheptyl)picolinamide]: the IC50 in assay [1] fell in the range of 100 to 1000 nM.

(Values after patent US20080234332A1, “RAF KINASE INHIBITORS CONTAINING A ZINC BINDING MOIETY” (priority 2007, published 2008).)
